Measured values: ChEMBL document CHEMBL6109115, “Rapid discovery of pseudorabies virus inhibitors repurposed from the antimicrobial agent ciprofloxacin” (Eur J Med Chem, 2025)
Converted amounts (≈) assume the structure as drawn. The source made the active and inactive calls. The rule behind the calls is not given here.

Experiments:
Suid alphaherpesvirus 1 [1] = experiment: Antiviral activity against Suid alphaherpesvirus 1 infected in pig PK-15 cells assessed as inhibition of replication pretreated with compound for 2 hrs followed by viral infection and measured after 48 hrs; assay type: functional, organism-based; conditions: Suid alphaherpesvirus 1, PK-15
Suid alphaherpesvirus 1 [2] = experiment: Antiviral activity against Suid alphaherpesvirus 1 infected in pig PK-15 cells assessed as inhibition of viral growth; assay type: functional; conditions: Suid alphaherpesvirus 1, in Sus scrofa
[3] = Half life in male Kunming mouse at 30 mg/kg, ip measured upto 8 hrs by LC-MS/MS analysis; assay type: ADME, organism-based; conditions: in vivo
[4] = AUC (0 to t) in male Kunming mouse at 30 mg/kg, ip measured up to 8 hrs by LC-MS/MS analysis; assay type: ADME, organism-based; conditions: in vivo
Suid alphaherpesvirus 1 [5] = experiment: Antiviral activity against Suid alphaherpesvirus 1 infected in Kunming mouse assessed as survival at 30 mg/kg, ip measured at 7.3 days; assay type: functional, organism-based; conditions: time 7.3 day
[6] = MRT (0 to t) in male Kunming mouse at 30 mg/kg, ip measured up to 8 hrs by LC-MS/MS analysis; assay type: ADME, organism-based; conditions: in vivo
[7] = Tmax in male Kunming mouse at 30 mg/kg, ip measured up to 8 hrs by LC-MS/MS analysis; assay type: ADME, organism-based; conditions: in vivo
Suid alphaherpesvirus 1 [8] = experiment: Antiviral activity against Suid alphaherpesvirus 1 infected in pig PK-15 cells assessed as inhibition of replication at >200 nM pretreated with compound for 2 hrs followed by viral infection and measured after 48 hrs; assay type: functional; conditions: time 50 hrs
Suid alphaherpesvirus 1 [9] = experiment: Antiviral activity against Suid alphaherpesvirus 1 infected in Kunming mouse assessed as reduction in viral copy numbers in blood at 30 mg/kg, ip measured on day 6 by qPCR analysis; assay type: functional, organism-based; conditions: time 6.0 day
Suid alphaherpesvirus 1 [10] = experiment: Antiviral activity against Suid alphaherpesvirus 1 infected in Kunming mouse assessed as reduction in viral copy numbers in brain at 30 mg/kg, ip measured on day 6 by qPCR analysis; assay type: functional; conditions: time 6 day
[11] = Cmax in male Kunming mouse at 30 mg/kg, ip measured up to 8 hrs by LC-MS/MS analysis; assay type: ADME, organism-based; conditions: in vivo
[12] = MRT (0 to infinity) in male Kunming mouse at 30 mg/kg, ip measured up to 8 hrs by LC-MS/MS analysis; assay type: ADME, organism-based; conditions: in vivo
Suid alphaherpesvirus 1 [13] = experiment: Antiviral activity against Suid alphaherpesvirus 1 infected in Kunming mouse assessed as inhibition of viral copy numbers in brain at 30 mg/kg, ip measured on day 6 by qPCR analysis; assay type: functional; conditions: Suid alphaherpesvirus 1, 144 h, time 6 day
[14] = AUC (0 to infinity) in male Kunming mouse at 30 mg/kg, ip measured up to 8 hrs by LC-MS/MS analysis; assay type: ADME, organism-based; conditions: in vivo
[15] = Cytotoxicity against pig PK-15 cells assessed as cell viability incubated for 72 hrs by CCK-8 assay; assay type: toxicity, cell-based, Sus scrofa
[16] = Cytotoxicity against pig PK-15 cells; assay type: toxicity, cell-based, Sus scrofa
Suid alphaherpesvirus 1 [17] = experiment: Antiviral activity against Suid alphaherpesvirus 1; assay type: functional, organism-based
Suid alphaherpesvirus 1 [18] = experiment: Antiviral activity against Suid alphaherpesvirus 1 infected in pig PK-15 cells assessed as inhibition of viral replication pretreated with compound for 2 hrs followed by viral infection and measured after 24 hrs by ELISA analysis; assay type: functional, organism-based; conditions: Suid alphaherpesvirus 1, PK-15
Suid alphaherpesvirus 1 [19] = experiment: Antiviral activity against Suid alphaherpesvirus 1 infected in pig PK-15 cells; assay type: functional, organism-based; conditions: Suid alphaherpesvirus 1, PK-15
Suid alphaherpesvirus 1 [20] = experiment: Antiviral activity against Suid alphaherpesvirus 1 infected in pig PK-15 cells assessed as inhibition of replication at 1 uM pretreated with compound for 2 hrs followed by viral infection and measured after 48 hrs (reference value: 99.6%); assay type: functional; conditions: Suid alphaherpesvirus 1, PK-15, in Sus scrofa, time 50 hrs
Suid alphaherpesvirus 1 [21] = experiment: Antiviral activity against Suid alphaherpesvirus 1 infected in pig PK-15 cells infected for 1 hr followed by compound addition and measured after 48 hrs; assay type: functional, organism-based; conditions: Suid alphaherpesvirus 1, PK-15
Suid alphaherpesvirus 1 [22] = experiment: Antiviral activity against Suid alphaherpesvirus 1 infected in pig PK-15 cells assessed as inhibition of viral replication; assay type: functional, organism-based; conditions: Suid alphaherpesvirus 1, PK-15

## O=C(NCc1cc(Cl)ccc1F)c1cn(Cc2ccccc2)c2cc(N3CCNCC3)c(F)cc2c1=O
Suid alphaherpesvirus 1 [1]
  EC50: 2.11 nM
Suid alphaherpesvirus 1 [2]
  MIC80: 40 nM (≈ 20.9 ng/mL)

## CCn1cc(C(=O)NCc2cccc(Cl)c2)c(=O)c2cc(F)c(N3CCNCC3)cc21
Suid alphaherpesvirus 1 [1]
  EC50: 0.85 nM
Suid alphaherpesvirus 1 [2]
  MIC80: 8 nM (≈ 3.54 ng/mL)

## O=C(NCc1cc(Cl)ccc1F)c1cn(-c2ccccc2)c2cc(N3CCNCC3)c(F)cc2c1=O
[3]
  half-life: 3.24 h
Suid alphaherpesvirus 1 [1]
  EC50: 0.29 nM
[4]
  AUC(0-t) at 8 h: 1020 ng·h/mL
Suid alphaherpesvirus 1 [5]
  Activity: Active
[6]
  MRT last at 8 h: 3.15 h
[7]
  Tmax: 1.5 h
Suid alphaherpesvirus 1 [8]
  inhibition (INH): <=99.5%
Suid alphaherpesvirus 1 [9]
  Activity: Active
Suid alphaherpesvirus 1 [10]
  Activity: 280 g⁻¹
[11]
  Cmax: 342 ng/mL
[12]
  MRT inf: 5.34 h
Suid alphaherpesvirus 1 [2]
  MIC80: 1.6 nM (≈ 0.814 ng/mL)
Suid alphaherpesvirus 1 [13]
  inhibition in vivo at 30 mg/kg: > 99%
[14]
  AUC(0-inf): 1330 ng·h/mL

## O=C(NCc1ccc(Cl)cc1)c1cn(C2CC2)c2cc(N3CCNCC3)c(F)cc2c1=O
Suid alphaherpesvirus 1 [1]
  EC50: 2.21 nM
[15]
  CC50 at 72 h: 9300 nM
Suid alphaherpesvirus 1 [2]
  MIC80: 200 nM (≈ 91 ng/mL)

## Cn1cc(C(=O)NCc2ccc(Cl)cc2)c(=O)c2cc(CN3CCOCC3)ccc21
Suid alphaherpesvirus 1 [1]
  EC50: 1.45 nM
[16]
  CC50: 45200 nM
Suid alphaherpesvirus 1 [17]
  EC50: 0.1 nM
Suid alphaherpesvirus 1 [2]
  MIC80: 0.32 nM (≈ 0.136 ng/mL)

## O=C(NCc1ccc(Cl)c(Cl)c1)c1cn(C2CC2)c2cc(N3CCNCC3)c(F)cc2c1=O
Suid alphaherpesvirus 1 [1]
  EC50: 0.25 nM
Suid alphaherpesvirus 1 [2]
  MIC80: 8 nM (≈ 3.92 ng/mL)

## Oc1ccc(O)cc1 [HYDROQUINONE]
Suid alphaherpesvirus 1 [17]
  EC50: 8300 nM

## C[C@]12CC[C@H](O)C[C@H]1CC[C@@H]1[C@@H]2CC[C@]2(C)[C@@H](c3ccc(=O)oc3)CC[C@]12O [BUFALIN]
Suid alphaherpesvirus 1 [18]
  EC50: 33 nM

## Oc1cc(O)cc(/C=C/c2ccc(O)c(O)c2)c1 [PICEATANNOL]
Suid alphaherpesvirus 1 [19]
  EC50: 126 nM

## CCn1cc(C(=O)O)c(=O)c2cc(F)c(N3CCNCC3)cc21 [NORFLOXACIN]
Suid alphaherpesvirus 1 [20]
  inhibition at 1 µM: 66%

## Cc1cc(O)c2c(c1)C(=O)c1cc(O)cc(O)c1C2=O [EMODIN]
Suid alphaherpesvirus 1 [21]
  EC50: 470 nM

## CCCCCC/C=C\CCCCCCCc1cccc(O)c1C(=O)O [GINGKOLIC ACID]
Suid alphaherpesvirus 1 [17]
  EC50: 3400 nM

## O=C(NCc1cc(Cl)ccc1Cl)c1cn(C2CC2)c2cc(N3CCNCC3)c(F)cc2c1=O
Suid alphaherpesvirus 1 [1]
  EC50: 0.71 nM
Suid alphaherpesvirus 1 [2]
  MIC80: 8 nM (≈ 3.92 ng/mL)

## O=C(NCc1cc(Cl)ccn1)c1cn(C2CC2)c2cc(N3CCNCC3)c(F)cc2c1=O
Suid alphaherpesvirus 1 [1]
  EC50: 0.39 nM
Suid alphaherpesvirus 1 [2]
  MIC80: 8 nM (≈ 3.65 ng/mL)

## O=C(NCc1cccc(Cl)c1)c1cn(C2CC2)c2cc(N3CCNCC3)c(F)cc2c1=O
Suid alphaherpesvirus 1 [1]
  EC50: 10.2 nM
Suid alphaherpesvirus 1 [2]
  MIC80: 40 nM (≈ 18.2 ng/mL)

## CN(C)CCNC(=O)c1cn(C)c2ccc(CN3CCOCC3)cc2c1=O
[16]
  CC50: 344000 nM
Suid alphaherpesvirus 1 [22]
  EC50: 0.014 nM

## O=C(NCc1cc(Cl)ccc1F)c1cn(C2CC2)c2cc(N3CCNCC3)c(F)cc2c1=O
Suid alphaherpesvirus 1 [1]
  EC50: 0.21 nM
[15]
  CC50 at 72 h: > 100000 nM
Suid alphaherpesvirus 1 [8]
  inhibition (INH): <=99.5%
Suid alphaherpesvirus 1 [2]
  MIC80: 1.6 nM (≈ 0.757 ng/mL)

## O=C(O)c1cn(C2CC2)c2cc(N3CCNCC3)c(F)cc2c1=O [CIPROFLOXACIN]
Suid alphaherpesvirus 1 [20]
  inhibition at 1 µM: 65%
